Assays:
[1] = system: JEG-3 cells (choriocarcinoma cell line); assay: Leptin assay in non-recombinant system: [3H]-thymidine incorporation / proliferation of JEG-3 cells; type: cell-based
Description: In JEG-3 cells (choriocarcinoma cell line) leptin is able to stimulate proliferation up to 3 fold (Biol. Reprod. (2007) 76: 203-10). […] The radioactivity incorporated by the cells is an index of their proliferative activity and is measured in counts per minute (CPM) with a liquid scintillation beta counter.
This finding can be applied to test whether a compound is able to either reproduce the effect of leptin on cell proliferation (leptin receptor agonist mimetic) (i.e., a given compound will cause an increase in incorporated [^3H]-Thymidine by the cells) or to inhibit the effect of leptin (antagonistic effect) by preventing the leptin-mediated increase in [H]-thymidine incorporation.

[2] = system: JEG-3 cells (choriocarcinoma cell line); details: Biol. Reprod. (2007) 76: 203-10; cited from earlier work

Q: Which “concentration giving maximal effect on [3H]-thymidine incorporation” value ([1]; FIG. 5) does the source give for “Leptin: a hormone synthesized in fat cells that is believed to act in the hypothalamus to reduce food intake and body weight” here?
A: The value was 100 nM.

Q: What about the EC50 ([1]; FIG. 5, read-out: concentration-dependent increase in [3H]-thymidine incorporation, EC50) of the same substance?
A: Its EC50 is 2.1 nM.

Q: And the stimulation of proliferation [2]?
A: The stimulation of proliferation was “up to 3 fold”.

Reference: patent US7851471B2, “Compounds I” (AstraZeneca AB (PUBL), priority 2007, dated 2010)
